Assay results from US20140023611A1 (priority 2010, published 2014).

molecular target: T1, rat NaP2b (SLC34A2) (Rattus norvegicus, UniProt Q9JJ09); assay: Inhibition of NaP2b-mediated Pi (33P) uptake in transfected HEK293 cells, rat NaP2b; assay type: cell-based; conditions: 33P Pi uptake, 0.1 mM phosphate, value given as pIC50 range
T1 construct: host or cells: HEK293
T1 sequence (Q9JJ09 1-695): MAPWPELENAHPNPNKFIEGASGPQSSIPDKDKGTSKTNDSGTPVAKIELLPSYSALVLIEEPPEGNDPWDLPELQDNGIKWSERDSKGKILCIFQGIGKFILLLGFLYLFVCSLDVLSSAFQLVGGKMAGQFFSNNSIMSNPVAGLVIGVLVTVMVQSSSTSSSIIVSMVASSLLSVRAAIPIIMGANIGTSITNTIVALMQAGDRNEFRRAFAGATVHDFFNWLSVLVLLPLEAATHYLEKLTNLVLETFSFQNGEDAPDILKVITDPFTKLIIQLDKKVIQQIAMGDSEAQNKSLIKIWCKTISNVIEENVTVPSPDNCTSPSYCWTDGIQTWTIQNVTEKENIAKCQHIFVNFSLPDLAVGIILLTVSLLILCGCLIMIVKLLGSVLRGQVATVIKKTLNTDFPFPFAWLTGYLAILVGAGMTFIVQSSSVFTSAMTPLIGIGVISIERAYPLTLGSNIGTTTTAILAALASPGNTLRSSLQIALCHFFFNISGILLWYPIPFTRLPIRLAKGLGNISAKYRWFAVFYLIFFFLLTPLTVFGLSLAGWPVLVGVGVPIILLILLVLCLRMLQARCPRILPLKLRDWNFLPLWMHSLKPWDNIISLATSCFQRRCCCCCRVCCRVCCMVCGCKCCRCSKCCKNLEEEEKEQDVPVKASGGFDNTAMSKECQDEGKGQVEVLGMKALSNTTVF
Protocol: HEK293 cells were obtained from the American Type Culture collection and propagated per their instructions. […] The sequence of the human protein was mutated to insert a threonine after residue 37, and to introduce a N39D mutation.
Cells were seeded into 96-well plates at 25,000 cells/well and cultured overnight. Lipofectamine 2000 (Invitrogen) was used to introduce the NaP2b cDNA, and the cells were allowed to approach confluence during a second overnight incubation. […] Each compound was tested at twelve concentrations ranging from 0.1 nM to 30 uM. Assays were run in duplicate.
Cells were lysed by addition of 20 μL 0.1% Tween 80 followed by 100 μL scintillation fluid, and counted using a TopCount (Perkin Elmer).
pIC50 (the negative log of the IC50) values of the test compounds were calculated using GraphPad Prism.

SMILES	IC50 [µM]	pIC50 range for rat Nap2b
O=C(O)CCSCc1cccc(C(=O)Nc2ccc(N3CCCCC3)cc2-c2cc(C(=O)NCc3cccc(C(F)(F)F)c3F)ccn2)c1 [Example 1.31]	1 to 7.94	–
O=C(O)CCSCc1cccc(C(=O)Nc2ccc(N3CCCCC3)cc2-c2cc(OCc3cccc(C(F)(F)F)c3)ccn2)c1 [Example 98]	10 to 31.6	–
CCN(CC)c1ccc(NC(=O)c2cccc(C(=O)N(C)CCN(C)CCOCCOCCOCCNC(=O)C(C)(C)C)c2)c(-c2cc(C(=O)NCc3cccc(C(F)(F)F)c3)ccn2)c1 [Example 346, N2-(4-(diethylamino)-2-(4-(3-(trifluoromethyl)benzylcarbamoyl)pyridin-2-yl)phenyl)-N^3-methyl-N^3-(3,17,17-trimethyl-16-oxo-6,9,12-trioxa-3,15-diazaoctadecyl)isophthalamide]	–	5.1-6.0
CN(CCN1CCOCC1)C(=O)c1cccc(C(=O)Nc2ccc(C(F)(F)F)cc2-c2cc(C(=O)N[C@H]3CCCc4ccccc43)ccn2)c1 [Example 130, (S)—N1-methyl-N1-(2-morpholinoethyl)-N3-(2-(4-(1,2,3,4-tetrahydronaphthalen-1-ylcarbamoyl)pyridin-2-yl)-4-(trifluoromethyl)phenyl)isophthalamide]	1 to 7.94	–
O=C(O)CCSCc1cccc(C(=O)Nc2ccc(N3CCCCC3)cc2-c2cc(C(=O)NCc3ccc4c(c3)OCCCO4)ccn2)c1 [Example 1.22]	1 to 7.94	–
COc1ccc(CNC(=O)c2ccnc(-c3cc(N4CCCCC4)ccc3NC(=O)c3cccc(CSCCC(=O)O)c3)c2)cc1C(F)(F)F [Example 1.27]	10 to 31.6	–
CN(Cc1cccc(C(=O)Nc2ccc(N3CCCCC3)cc2-c2cc(C(=O)NCc3cccc(C(F)(F)F)c3)ccn2)c1)C(=O)CN1CCOCC1 [Example 42, 2-(2-(3-((N-Methyl-2-morpholinoacetamido)methyl)benzamido)-5-(piperidin-1-yl)phenyl)-N-(3-(trifluoromethyl)benzyl)isonicotinamide]	10 to 31.6	–
COCCOCCOCCOCCOCCOCCOCCOCC(=O)N1CCN(CCN(C)C(=O)c2cccc(C(=O)Nc3ccc(N4CCCCC4)cc3-c3cc(C(=O)N[C@H]4CCCc5ccccc54)ccn3)c2)CC1 [Example 228, (S)—N1-(2-(4-2,5,8,11,14,17,20,23-octaoxapentacosanepiperazin-1-yl)ethyl)-N1-methyl-N3-(4-(piperidin-1-yl)-2-(4-(1,2,3,4-tetrahydronaphthalen-1-ylcarbamoyl)pyridin-2-yl)phenyl)isophthalamide]	1 to 7.94	–
CN1CCN(CCN(C)Cc2cccc(C(=O)Nc3ccc(N4CCCCC4)cc3-c3cc(C(=O)NCc4cccc(C(F)(F)F)c4)ccn3)n2)CC1 [Example 61, 6-((Methyl(2-(4-methylpiperazin-1-yl)ethyl)amino)methyl)-N-(4-(piperidin-1-yl)-2-(4-((3-(trifluoromethyl)benzyl)carbamoyl)pyridin-2-yl)phenyl)picolinamide]	10 to 31.6	–
O=C(NCc1cccc(C(F)(F)F)c1)c1ccnc(-c2cc(N3CCCCC3)ccc2NC(=O)c2cccc(Cn3ccc4c(C(=O)NCCOCCOCCO)cccc43)c2)c1 [Example 180, N-(2-(2-(2-hydroxyethoxy)ethoxy)ethyl)-1-(3-(4-(piperidin-1-yl)-2-(4-(3-(trifluoromethyl)benzylcarbamoyl)pyridin-2-yl)phenylcarbamoyl)benzyl)-1H-indole-4-carboxamide]	1 to 7.94	–
O=C(O)c1cccc(Cn2ccnc2-c2cccc(C(=O)Nc3ccc(N4CCCCC4)cc3-c3cc(C(=O)NCc4cccc(C(F)(F)F)c4)ccn3)c2)c1 [Example 184, 3-((2-(3-(4-(piperidin-1-yl)-2-(4-(3-(trifluoromethyl)benzylcarbamoyl)pyridin-2-yl)phenylcarbamoyl)phenyl)-1H-imidazol-1-yl)methyl)benzoic acid]	1 to 7.94	–
CN1CCN(CCN(C)C(=O)c2cccc(C(=O)Nc3ccc(N4CCCCC4)cc3-c3cc(C(=O)NCc4cccc(C(F)(F)F)c4)ccn3)c2)CC1 [Example 82, N1-Methyl-N1-(2-(4-methylpiperazin-1-yl)ethyl)-N3-(4-(piperidin-1-yl)-2-(4-((3-(trifluoromethyl)benzyl)carbamoyl)pyridin-2-yl)phenyl)isophthalamide]	1 to 7.94	–
CC(C)(CCO)SCc1cccc(C(=O)Nc2ccc(N3CCCCC3)cc2-c2cc(C(=O)NCc3cccc(C(F)(F)F)c3)ccn2)c1 [Example 92]	1 to 7.94	–
CCCN(CCC)c1ccc(NC(=O)c2cccc(C(=O)N(C)CCN3CCOCC3)c2)c(-c2cc(C(=O)NCc3cccc(C(F)(F)F)c3)ccn2)c1 [Example 116]	1 to 7.94	–
C[C@H]1CCCCN1c1ccc(NC(=O)c2cccc(C(=O)N(C)CCN3CCOCC3)c2)c(-c2cc(C(=O)NCc3cccc(C(F)(F)F)c3)ccn2)c1 [Example 105]	1 to 7.94	–
CCN(CC)c1ccc(NC(=O)c2cccc(C(=O)N3CCC[C@H](C(=O)NCCOC)C3)c2)c(-c2cc(C(=O)NCc3cccc(C(F)(F)F)c3)ccn2)c1 [Example 189, (S)-2-(5-(diethylamino)-2-(3-(3-((2-methoxyethyl)carbamoyl)piperidine-1-carbonyl)benzamido)phenyl)-N-(3-(trifluoromethyl)benzyl)isonicotinamide]	1 to 7.94	–
O=C(O)COc1cccc(SCc2cccc(C(=O)Nc3ccc(N4CCCCC4)cc3-c3cc(C(=O)NCc4cccc(C(F)(F)F)c4)ccn3)c2)c1 [Example 134, 2-(3-(3-(4-(piperidin-1-yl)-2-(4-(3-(trifluoromethyl)benzylcarbamoyl)pyridin-2-yl)phenylcarbamoyl)benzylthio)phenoxy)acetic acid]	1 to 7.94	–
CCCN(C)c1ccc(NC(=O)c2cccc(C(=O)N(C)CCN3CCOCC3)c2)c(-c2cc(C(=O)NCc3cccc(C(F)(F)F)c3)ccn2)c1 [Example 129, N^1-methyl-N^3-(4-(methyl(propyl)amino)-2-(4-((3-(trifluoromethyl)benzyl)carbamoyl)pyridin-2-yl)phenyl)-N-(2-morpholinoethyl)isophthalamide]	1 to 7.94	–
O=C(O)CCSCc1cccc(C(=O)Nc2ccc(N3CCCCC3)cc2-c2cc(C(=O)NCc3ccc(N4CCCCC4)cc3)ccn2)c1 [Example 1.14]	1 to 7.94	–
O=C(O)CC1CCN(C(=O)c2cccc(C(=O)Nc3ccc(N4CCCCC4)cc3-c3cc(C(=O)NCc4cccc(C(F)(F)F)c4)ccn3)c2)CC1 [Example 4.31, 2-(1-(3-(4-(Piperidin-1-yl)-2-(4-(3-(trifluoromethyl)benzylcarbamoyl)pyridin-2-yl)phenylcarbamoyl)benzoyl)piperidin-4-yl)acetic acid]	10 to 31.6	–
CC(=O)N1CCCN(C(=O)c2cccc(C(=O)Nc3ccc(N4CCCCC4)cc3-c3cc(C(=O)NCc4cccc(C(F)(F)F)c4)ccn3)c2)CC1 [Example 4.13, 2-(2-(3-(4-Acetyl-1,4-diazepane-1-carbonyl)benzamido)-5-(piperidin-1-yl)phenyl)-N-(3-(trifluoromethyl)benzyl)isonicotinamide]	1 to 7.94	–

Second part, the molecule after the results:

IC50 [µM]	pIC50 range for rat Nap2b	SMILES
10 to 31.6	–	O=C(O)CCSCc1cccc(C(=O)Nc2ccc(N3CCCCC3)cc2-c2cc(C(O)c3cccc(C(F)(F)F)c3)ccn2)c1 (stereo not shown) [Example 6.2, 3-((3-((2-(4-(Hydroxy(3-(trifluoromethyl)phenyl)methyl)pyridin-2-yl)-4-(piperidin-1-yl)phenyl)carbamoyl)benzyl)thio)propanoic acid]
1 to 7.94	–	O=C(O)c1cccc(CSCc2cccc(C(=O)Nc3ccc(N4CCCCC4)cc3-c3cc(C(=O)NCc4cccc(C(F)(F)F)c4)ccn3)c2)c1 [Example 9.3, 3-(((3-((4-(Piperidin-1-yl)-2-(4-((3-(trifluoromethyl)benzyl)carbamoyl)pyridin-2-yl)phenyl)carbamoyl)benzyl)thio)methyl)benzoic acid]
1 to 7.94	–	CN(CCN1CCOCC1)C(=O)c1cccc(SCc2cccc(C(=O)Nc3ccc(N4CCCCC4)cc3-c3cc(C(=O)NCc4cccc(C(F)(F)F)c4)ccn3)c2)c1 [Example 10.7]
10 to 31.6	–	CN1CCC(NC(=O)c2cccc(SCc3cccc(C(=O)Nc4ccc(N5CCCCC5)cc4-c4cc(C(=O)NCc5cccc(C(F)(F)F)c5)ccn4)c3)c2)CC1 [Example 10.4]
10 to 31.6	–	O=C(NCc1cccc(C(F)(F)F)c1)c1ccnc(-c2cc(N3CCCCC3)ccc2NC(=O)c2cccc(CN3CCC(CO)CC3)c2)c1 [Example 8.27]
1 to 7.94	–	O=C(NCc1cccc(C(F)(F)F)c1)c1ccnc(-c2cc(N3CCCCC3)ccc2NC(=O)c2cccc(Cn3ccc4c(C(=O)O)cccc43)c2)c1 [Example 9.1, 1-(3-((4-(Piperidin-1-yl)-2-(4-((3-(trifluoromethyl)benzyl)carbamoyl)pyridin-2-yl)phenyl)carbamoyl)benzyl)-1H-indole-4-carboxylic acid]
1 to 7.94	–	O=C(NCc1cccc(C(F)(F)F)c1)c1ccnc(-c2cc(N3CCCCC3)ccc2NC(=O)c2cccc(CSCCO)c2)c1 [Example 8.2]
